Data on 29 molecules can be found in patent US10471046B2, “Method for treating, preventing, or reducing the risk of skin infection” (Melinta Subsidiary Corp., priority 2014, dated 2019).

The experiment has as its system S. aureus. Briefly: Minimum inhibitory concentrations (MICs) for S. aureus of exemplary compounds (Table 2). The conditions noted are these: Staphylococcus aureus, read-out: MICs. Type of experiment: cell-based. In outline:
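Growth of S. aureus in media with or without compound, by broth microdilution in microtiter trays following NCCLS M7-A5 guidelines. Values are MICs in μg/mL.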

The mark [1] stands for this setting: minimum inhibitory concentrations for S. aureus.

Values after ≈ are worked out from the molar mass of the structure shown. Read-outs that look alike come from different tables or passages of the source.

Take `CC(=O)NC[C@H]1CN(c2ccc(-c3ccc(CNCc4cc(-c5ccccc5)oc4C)cc3)c(F)c2)C(=O)O1` [Compound 4130, N-[3-(2-Fluoro-4′-{[(2-methyl-5-phenyl-furan-3-ylmethyl)-amino]-methyl}-biphenyl-4-yl)-2-oxo-oxazolidin-5-(S)-ylmethyl]-acetamide]: the MIC under setting [1] came to 2 µg/mL (≈ 3.79 µM).
The same measure, in the same setting: then `CC(=O)NC[C@H]1CN(c2ccc(-c3ccc(Cn4cc(C)nc4C)cc3)c(F)c2)C(=O)O1` [Compound 1068, N-{3-[4′-(2,4-Dimethyl-imidazol-1-ylmethyl)-2-fluoro-biphenyl-4-yl]-2-oxo-oxazolidin-5-(S)-ylmethyl}-acetamide], with 1 µg/mL (≈ 2.29 µM).
The same measure, in the same setting: then `CC(=O)NC[C@H]1CN(c2ccc(-c3ccc(CNn4cnnc4)cc3)c(F)c2)C(=O)O1` [Compound 2046, N-{3-[2-Fluoro-4′-([1,2,4]triazol-4-ylaminomethyl)-biphenyl-4-yl]-2-oxo-oxazolidin-5-(S)-ylmethyl}-acetamide], with 1 µg/mL (≈ 2.36 µM); and `CC(=O)NC[C@H]1CN(c2ccc(-c3ccc(CNCc4ccncc4)cn3)c(F)c2)C(=O)O1` [Compound 4052, N-{3-[3-Fluoro-4-(5-{[(pyridin-4-ylmethyl)-amino]-methyl}-pyridin-2-yl)-phenyl]-2-oxo-oxazolidin-5-(S)-ylmethyl}-acetamide], with 64 µg/mL (≈ 142 µM); and `CC(=O)NC[C@H]1CN(c2ccc(-c3ccc(Cn4cnnn4)nc3)c(F)c2)C(=O)O1` [Compound 1035, N-{3-[3-Fluoro-4-(6-tetrazol-1-ylmethyl-pyridin-3-yl)-phenyl]-2-oxo-oxazolidin-5-(S)-ylmethyl}-acetamide], with 0.5 µg/mL (≈ 1.22 µM).
Same read-out and setting: then `COc1cc(CNCc2ccoc2)ccc1-c1ccc(N2C[C@H](CNC(C)=O)OC2=O)cc1F` [Compound 4028, N-[3-(2-Fluoro-4′-{[(furan-3-ylmethyl)-amino]-methyl}-2′-methoxy-biphenyl-4-yl)-2-oxo-oxazolidin-5-(S)-ylmethyl]-acetamide], with 8 µg/mL (≈ 17.1 µM); and `CC(=O)NC[C@H]1CN(c2ccc(-c3ccc(CCSc4cnn[nH]4)cc3)c(F)c2)C(=O)O1` [Compound 2026, N-(3-{2-Fluoro-4′-[2-(3H-[1,2,3]triazol-4-ylsulfanyl)-ethyl]-biphenyl-4-yl}-2-oxo-oxazolidin-5-(S)-ylmethyl)-acetamide], with 0.25 µg/mL (≈ 0.549 µM); and `CC(=O)NC[C@H]1CN(c2ccc(-c3ccc(Cn4cnc5c(NCCCCO)ncnc54)cc3)c(F)c2)C(=O)O1` [Compound 1109, N-(3-{2-Fluoro-4′-[6-(4-hydroxy-butylamino)-purin-9-ylmethyl]-biphenyl-4-yl}-2-oxo-oxazolidin-5-(S)-ylmethyl)-acetamide], with 2 µg/mL (≈ 3.65 µM).
Consider `COc1ccc(CNCc2ccc(-c3ccc(N4C[C@H](CNC(C)=O)OC4=O)cc3F)cc2)cn1` [Compound 4054, N-[3-(2-Fluoro-4′-{[(6-methoxy-pyridin-3-ylmethyl)-amino]-methyl}-biphenyl-4-yl)-2-oxo-oxazolidin-5-(S)-ylmethyl]-acetamide], for which the MIC under setting [1] came to 1 µg/mL (≈ 2.09 µM).
As for `CC(=O)NC[C@H]1CN(c2ccc(-c3ccc(CNCc4cocn4)cc3)c(F)c2)C(=O)O1` [Compound 4234, N-[3-(2-Fluoro-4′-{[(oxazol-4-ylmethyl)-amino]-methyl}-biphenyl-4-yl)-2-oxo-oxazolidin-5-(S)-ylmethyl]-acetamide], the MIC under setting [1] is 2 µg/mL (≈ 4.56 µM).
The same measure, in the same setting: then `CC(=O)NC[C@H]1CN(c2ccc(-c3ccc(CN4CCSCC4)cc3)c(F)c2)C(=O)O1` [Compound 1064, N-[3-(2-Fluoro-4′-thiomorpholin-4-ylmethyl-biphenyl-4-yl)-2-oxo-oxazolidin-5-(S)-ylmethyl]-acetamide], with 2 µg/mL (≈ 4.51 µM); and `CC(=O)NC[C@H]1CN(c2ccc(-c3ccc([C@H](O)CN4CCC4)cc3)c(F)c2)C(=O)O1` [Compound 1062, N-{3-[4′-(2-Azetidin-1-yl-1-(S)-hydroxy-ethyl)-2-fluoro-biphenyl-4-yl]-2-oxo-oxazolidin-5-(S)-ylmethyl}-acetamide], with 8 µg/mL (≈ 18.7 µM); and `CC(=O)NC[C@H]1CN(c2ccc(-c3ccc(CN(Cc4nnn(C)n4)C(=O)OC(C)(C)C)cc3)c(F)c2)C(=O)O1` [Compound 4281, {4′-[5-(S)-(Acetylamino-methyl)-2-oxo-oxazolidin-3-yl]-2′-fluoro-biphenyl-4-ylmethyl}-(2-methyl-2H-tetrazol-5-ylmethyl)-carbamic acid tert-butyl ester], with 2 µg/mL (≈ 3.61 µM).
Still for that read-out and setting: next, `CC(=O)NC[C@H]1CN(c2ccc(-c3ccc(CNCc4c(C)noc4C)cc3)c(F)c2)C(=O)O1` [Compound 4109, N-[3-(4′-{[(3,5-Dimethyl-isoxazol-4-ylmethyl)-amino]-methyl}-2-fluoro-biphenyl-4-yl)-2-oxo-oxazolidin-5-(S)-ylmethyl]-acetamide]: 1 µg/mL (≈ 2.14 µM); `CCSc1nnn(Cc2ccc(-c3ccc(N4C[C@H](CNC(C)=O)OC4=O)cc3F)cc2)n1` [Compound 1082, N-{3-[4′-(5-Ethylsulfanyl-tetrazol-2-ylmethyl)-2-fluoro-biphenyl-4-yl]-2-oxo-oxazolidin-5-(S)-ylmethyl}-acetamide]: 0.5 µg/mL (≈ 1.06 µM).
Consider `CC(=O)NC[C@H]1CN(c2ccc(-c3ccc(CNCCn4ccnn4)cc3)c(F)c2)C(=O)O1` [Compound 4262, N-(3-{2-Fluoro-4′-[(2-[1,2,3]triazol-1-yl-ethylamino)-methyl]-biphenyl-4-yl}-2-oxo-oxazolidin-5-(S)-ylmethyl)-acetamide], for which the MIC under setting [1] was 2 µg/mL (≈ 4.42 µM).
On the same count and under the same terms, then `CC(=O)NC[C@H]1CN(c2ccc(-c3ccc(CNCCSc4nnc[nH]4)cc3)c(F)c2)C(=O)O1` [Compound 5005, N-[3-(2-Fluoro-4′-{[2-(4H-[1,2,4]triazol-3-ylsulfanyl)-ethylamino]-methyl}-biphenyl-4-yl)-2-oxo-oxazolidin-5-(S)-ylmethyl]-acetamide], with 0.5 µg/mL (≈ 1.03 µM); and `CC(=O)NC[C@H]1CN(c2ccc(-c3ccc(C(=O)NCc4ccccn4)cc3)c(F)c2)C(=O)O1` [Compound 4110, 4′-[5-(S)-(Acetylamino-methyl)-2-oxo-oxazolidin-3-yl]-2′-fluoro-biphenyl-4-carboxylic acid (pyridin-2-ylmethyl)-amide], with 0.25 µg/mL (≈ 0.541 µM); and `CC(=O)NC[C@H]1CN(c2ccc(-c3ccc(CNC(=O)C(N)Cc4cccnc4)cc3)c(F)c2)C(=O)O1` (stereo in doubt) [Compound 4310, N-{4′-[5-(S)-(Acetylamino-methyl)-2-oxo-oxazolidin-3-yl]-2′-fluoro-biphenyl-4-ylmethyl}-2-(R)-amino-3-pyridin-3-yl-propionamide], with 4 µg/mL (≈ 7.91 µM).
Turning to `CC(=O)NC[C@H]1CN(c2ccc(-c3ccc(CNCc4cncnc4)cc3)c(F)c2)C(=O)O1` [Compound 4203, N-[3-(2-Fluoro-4′-{[(pyrimidin-5-ylmethyl)-amino]-methyl}-biphenyl-4-yl)-2-oxo-oxazolidin-5-(S)-ylmethyl]-acetamide], the MIC was determined as 1 µg/mL (≈ 2.22 µM).
For the molecule `O=C1O[C@@H](Cn2cncn2)CN1c1ccc(-c2ccc(CNCc3ccncc3)cc2)c(F)c1` [Compound 4230, 3-(2-Fluoro-4′-{[(pyridin-4-ylmethyl)-amino]-methyl}-biphenyl-4-yl)-5-(R)-[1,2,4]triazol-1-ylmethyl-oxazolidin-2-one], under setting [1], the MIC is 32 µg/mL (≈ 69.8 µM).
The same measure, in the same setting: next, `CC(=O)NC[C@H]1CN(c2ccc(-c3ccc(CNCc4ccsc4)cc3)c(F)c2)C(=O)O1` [Compound 4086, N-[3-(2-Fluoro-4′-{[(thiophen-3-ylmethyl)-amino]-methyl}-biphenyl-4-yl)-2-oxo-oxazolidin-5-(S)-ylmethyl]-acetamide]: 4 µg/mL (≈ 8.82 µM).
On the same count and under the same terms, next, `CC(=O)NC[C@H]1CN(c2ccc(-c3ccc(CNCc4nn(C)cc4Br)cc3)c(F)c2)C(=O)O1` [Compound 4168, N-[3-(4′-{[(4-Bromo-1-methyl-1H-pyrazol-3-ylmethyl)-amino]-methyl}-2-fluoro-biphenyl-4-yl)-2-oxo-oxazolidin-5-(S)-ylmethyl]-acetamide]: 2 µg/mL (≈ 3.77 µM); `CC(=O)NC[C@H]1CN(c2ccc(-c3ccc(CNCc4ccc(C)o4)cc3)c(F)c2)C(=O)O1` [Compound 4081, N-[3-(2-Fluoro-4′-{[(5-methyl-furan-2-ylmethyl)-amino]-methyl}-biphenyl-4-yl)-2-oxo-oxazolidin-5-(S)-ylmethyl]-acetamide]: 2 µg/mL (≈ 4.43 µM); `CC(=O)NC[C@H]1CN(c2ccc(-c3ccc(CNCc4csnn4)c(F)c3)c(F)c2)C(=O)O1` [Compound 4164, N-[3-(2,3′-Difluoro-4′-{[([1,2,3]thiadiazol-4-ylmethyl)-amino]-methyl}-biphenyl-4-yl)-2-oxo-oxazolidin-5-(S)-ylmethyl]-acetamide]: 1 µg/mL (≈ 2.11 µM).
For `CC(=O)NC[C@H]1CN(c2ccc(-c3ccc([C@@H](N)Cn4ccnc4)cc3)c(F)c2)C(=O)O1` [Compound 1031, N-{3-[4′-(R)-(1-Amino-2-imidazol-1-yl-ethyl)-2-fluoro-biphenyl-4-yl]-2-oxo-oxazolidin-5-(S)-ylmethyl}-acetamide], the MIC under setting [1] turned out to be 8 µg/mL (≈ 18.3 µM).
Still for that read-out and setting: next, `CC(=O)NC[C@H]1CN(c2ccc(-c3ccc(Cn4cncc4C)cc3)c(F)c2)C(=O)O1` [Compound 1067, N-{3-[2-Fluoro-4′-(5-methyl-imidazol-1-ylmethyl)-biphenyl-4-yl]-2-oxo-oxazolidin-5-(S)-ylmethyl}-acetamide]: 1 µg/mL (≈ 2.37 µM); `CC(=O)NC[C@H]1CN(c2ccc(-c3ccc(CNCc4nn(C)cc4Cl)cc3)c(F)c2)C(=O)O1` [Compound 4139, N-[3-(4′-{[(4-Chloro-1-methyl-1H-pyrazol-3-ylmethyl)-amino]-methyl}-2-fluoro-biphenyl-4-yl)-2-oxo-oxazolidin-5-(S)-ylmethyl]-acetamide]: 2 µg/mL (≈ 4.12 µM).
Regarding `CC(=O)NC[C@H]1CN(c2ccc(-c3ccc(CNc4nc[nH]c4C(N)=O)cc3)c(F)c2)C(=O)O1` [Compound 2055, 5-({4′-[5-(S)-(Acetylamino-methyl)-2-oxo-oxazolidin-3-yl]-2′-fluoro-biphenyl-4-ylmethyl}-amino)-3H-imidazole-4-carboxylic acid amide], the MIC under setting [1] stood at 4 µg/mL (≈ 8.57 µM).
